The results in this text go back to patent US9877981B2, “NAD biosynthesis and precursors for the treatment and prevention of cancer and proliferation” (President and Fellows of Harvard College, priority 2012, dated 2018).

For assay [1], the system named is skeletal muscle mitochondria. As to the kind of experiment: Mitochondrial function in skeletal muscle of treated mice (membrane potential, ATP content, COX activity). It counts as in vivo. On the procedure:
(§1) C57BL/6J mice of 3, 6, 22, 24, or 30 months of age were obtained from the National Institutes of Aging mouse aging colony. Mice were acclimated for at least one-week prior to sacrifice. 3, and 24-month-old mice were given interperitoneal (IP) injections of 500 mg NMN/kg body weight per day or the equivalent volume of PBS for 7 consecutive days at 5:00 pm and 7:00 am on day 8 and sacrificed 4 hr after last injection. All animal studies followed the guidelines of and were approved by the Harvard Institutional Animal Care and Use Committee
Skeletal muscle mitochondria were isolated as described previously (Frezza et al., Nat. Protoc. 2:287-295 (2007)). Mitochondrial membrane potential, cytochrome c activity and succinate dehydrogenase were determined as described (Brautigan et al., Methods Enzymol. 53:128-164 (1978); Rolo et al., Biochim. Biophys. Acta. 1637:127-132 ([…]); Singer, T. P., Methods Biochem. Anal. 22:123-175 (1974)). ATP content was measured with a commercial kit according to the manufacturer's instructions (Roche).
C57BL/6J mice of 6, 22, or 30 months of age were obtained from the National Institutes of Aging mouse aging colony. Additionally 22 months old caloric restricted mice were also obtained from the National Institutes of Aging mouse aging colony. EGLN1 KO, SIRT1 KO and SIRT1 OE mice were generated as previously described (Minamishima et al., 2008; Price et al., 2012). Mice were acclimated for at least one-week prior to sacrifice. 3, 6, 22 and 24-month-old mice were given interperitoneal (IP) injections of 500 mg NMN/kg body weight per day or the equivalent volume of PBS for 7 consecutive days at 5:00 pm and 7:00 am on day 8 and sacrificed 4 hr after last injection.
Whole body SIRT1 overexpressor (SIRT1-tg) mice of 6 months of age were given interperitoneal (IP) injections of 300 mg DMOG/kg body weight per day or the equivalent volume of PBS for 5 consecutive days.
Whole body adult-inducible Egln1 knockout mice (Minamishima et al, 2007) were treated with IP injection of tamoxifen for 3 days after which they were allowed to rest. The mice were given interperitoneal (IP) injections of 500 mg NMN/kg body weight per day or the equivalent volume of PBS for 7 consecutive days at 5:00 pm and 7:00 am on day 8 and sacrificed 4 hr after last injection. All animal studies followed the guidelines of and were approved by the Harvard Institutional Animal Care and Use Committee.
Cytochrome c oxidase activity was polarographically determined based on the O2 consumption upon cytochrome c oxidation, as previously described (Brautigan et al., 1978). The reaction was carried out at 25° C. in 1.3 mL of standard respiratory medium (as in mitochondrial respiration) supplemented with 2 μM rotenone, 10 μM oxidized cytochrome c, 0.3 mg TritonX-100. Following addition of the sample, the reaction was initiated by adding 5 mM ascorbate plus 0.25 mM tetramethylphenylene-diamine (TMPD).
ATP content was measured with a commercial kit according to the manufacturer's instructions (Roche).

For another assay, the system named is HIF-1α. Nature of the assay: Immunoblot for HIF-1α in gastrocnemius of treated mice. It counts as in vivo. On the procedure:
as §1
C57BL/6J mice of 6, 22, or 30 months of age were obtained from the National Institutes of Aging mouse aging colony. Additionally 22 months old caloric restricted mice were also obtained from the National Institutes of Aging mouse aging colony. EGLN1 KO, SIRT1 KO and SIRT1 OE mice were generated as previously described (Minamishima et al., 2008; Price et al., 2012). Mice were acclimated for at least one-week prior to sacrifice. […]
Protein extracts from tissue or C2C12 cells were obtained by lysis in ice-cold lysis buffer (150 mM NaCl, 10 mM Tris HCl (pH 7.4), 1 mM EDTA, 1 mM EGTA, 1% Triton X-100, 0.5% NP-40) supplemented with a cocktail of protease and phosphatase inhibitors (Roche). Protein content was determined by the Bradford protein assay (Biorad), and 50 μg proteins were run on SDS-PAGE under reducing conditions. […] The immunostaining was detected using horseradish peroxidase-conjugated anti-rabbit or anti-mouse immunoglobulin for 1 h at room temperature.
Protein extracts from tissue were obtained by lysis in ice-cold lysis buffer (150 mM NaCl, 10 mM Tris HCl (pH 7.4), 1 mM EDTA, 1 mM EGTA, 1% Triton X-100, 0.5% NP-40) supplemented with a cocktail of protease and phosphatase inhibitors (Roche). Protein content was determined by the Bradford protein assay (Biorad), and 50 μg proteins were run on SDS-PAGE under reducing conditions. […] The immunostaining was detected using horseradish peroxidase-conjugated anti-rabbit or anti-mouse immunoglobulin for 1 h at room temperature.
In general terms: In western blotting, separated proteins are transferred to a membrane and probed.

For the next assay, the system named is PGC-1α/β KO myotubes. As to the kind of experiment: qPCR of ETC genes in PGC-1α/β KO myotubes. It counts as cell-based, mouse. On the set-up: expression of mitochondrially-encoded ETC genes (ND1, CYTB, COX1, ATP6): dose or concentration left out as unconfirmed. On the procedure: Primary myoblasts cells were isolated from WT, SIRT1 KO (Price et al., 2012) and PGC-1α/β KO (Zechner et al., 2010) mice as previously described (Price et al., 2012). WT and PGC-1α/β KO primary myoblasts were plated and allowed to differentiate into myotubes by replacing the media with low glucose DMEM supplemented with 2% horse serum (Sigma-Aldrich) for 4 days. After the differentiation the cells were infected with empty vector or flag-SIRT1 adenovirus as described before (Gerhart-Hines et al., 2007). Media was replaced with fresh DMEM supplemented with 2% horse serum (Sigma-Aldrich) for an additional 48 hr and, after that the cells were harvested for the different assays as described. To investigate the role of HIF-1α in genome asynchrony, PGC-1α/β KO primary myotubes were treated for 12 hours with 1 mM DMOG (Sigma) or 10 μM DFO (Sigma), 24 h after infection with empty vector of flag-SIRT1 adenovirus or after 12 h treatment with […] NMN (Sigma).
RNA from skeletal muscle tissue and C2C12 cells were extracted with RNeasy mini kit (Qiagen) according to the instructions and quantified using the NanoDrop 1000 spectrophotometer (Thermo Scientific). cDNA was synthesized with the iSCRIP cDNA synthesis kit (BioRad) using 600 ng of RNA. Quantitative RT-PCR reactions were performed using 1 μM of primers and LightCycler® 480 SYBR Green Master (Roche) on an LightCycler® 480 detection system (Roche). Calculations were performed by a comparative method (2-ΔCT) using 18S as an internal control. For mtDNA analysis, total DNA was extracted with DNeasy blood and tissue kit (Qiagen). mtDNA was amplified using primers specific for the mitochondrial cytochrome c oxidase subunit 2 (COX2) gene and normalized to genomic DNA by amplification of the ribosomal protein s18 (rps18) nuclear gene. Primers were designed using the IDT software (IDT) and the primer sequences can be found in Table 1.

Where [2] appears, read: treated 24-month-old mice, NMN 500 mg/kg IP one week, skeletal muscle.

Molecules are shown by their SMILES. Entries after “also recorded” stand apart in the source; their conditions may differ.

For `NC(=O)c1ccc[n+]([C@@H]2O[C@H](COP(=O)([O-])O)[C@@H](O)[C@H]2O)c1` [NMN, nicotinamide mononucleotide], the ATP levels entry is “increase in ATP levels” in assay [1] (6- and 22-month-old mice, NMN one week, gastrocnemius); “increases in ATP levels” in assay [1] (setting [2]). Further, the “ATP levels in skeletal muscle” value in assay [1] (Egln1 KO mice treated with NMN 500 mg/kg IP 7 days, compared to WT controls) was “did not restore”. In assay [1] (SIRT1 KO mice vs WT, NMN or PBS, skeletal muscle mitochondria), the “ability of NMN to improve mitochondrial function (membrane potential)” value is listed as “lost in animals lacking SIRT1”. In addition, the COX activity result in assay [1] (old mice, NMN one week, gastrocnemius (FIG. 24H)) is on record as “increase”; in assay [1] (setting [2]) it was “increases”. For the same compound, the mitochondrial membrane potential entry in assay [1] (treated 24-month-old mice, NMN 500 mg/kg IP one week, isolated skeletal muscle mitochondria) is “restoration of mitochondrial membrane potential to the levels of the young mice”. For the same compound, the “HIF-1α protein in muscle” value with HIF-1α (3- and 24-month-old mice, NMN 500 mg/kg IP one week) is “reversed the age-induced increase in HIF-1α in muscle”. For the same compound, in the assay with HIF-1α (6- and 22-month-old mice, NMN one week), the HIF-1α protein accumulation entry is reported as “reversed; also recorded: reduced the level of HIF-1α in muscle”. The “expression of mitochondrially-encoded ETC genes (ND1, CYTB, COX1, ATP6)” value in the assay with PGC-1α/β KO myotubes (PGC-1α/β KO myotubes incubated with NMN (12 h)) is “induced expression of mitochondrially-encoded ETC genes”.
`COC(=O)CNC(=O)C(=O)OC` [DMOG, dimethyloxaloylglycine]: in assay [1] (SIRT1-tg mice, DMOG 300 mg/kg IP per day, 5 days, gastrocnemius), the “increase in ATP levels observed in SIRT1-tg mice” value is given as “abolished”. For the same compound, the HIF-1α protein entry in the assay with HIF-1α (SIRT1-tg mice, DMOG 300 mg/kg IP per day, 5 days) is given as “increase HIF-1α”. Further, the “effect on NMN-induced expression of mitochondrially-encoded ETC genes” value with PGC-1α/β KO myotubes (PGC-1α/β KO myotubes, NMN plus 1 mM DMOG or 10 μM DFO, 12 hours) is on record as “completely abolished”. Also, in the assay with PGC-1α/β KO myotubes (PGC-1α/β KO myotubes, pyruvate in presence of DMOG), the “effect on NAD (pyruvate) mediated increases in mitochondrial-encoded genes” value was “inhibited”. Further, the “expression of mitochondrial-encoded genes compared to vehicle control” value in the assay with PGC-1α/β KO myotubes (PGC-1α/β knockout myotubes treated with DMOG) is “induced a decline in the expression of mitochondrial-encoded genes”. For the same compound, the “effect on induction of mitochondrial ETC genes by SIRT1 overexpression” value in the assay on PGC-1α/β KO myotubes (PGC-1α/β knockout myotubes with SIRT1 adenovirus, 1 mM DMOG or 10 μM DFO) is “completely blocked”.
